Source: US20070128217A1 (priority 2003, published 2007)

Assays:
[1] = test system: antibodies in sera from SARS patients (sera 1a, 1b, 2, 6, 37, 62, London, SARS-yellow, SARS-green); assay type: binding, human; parameters: Binding of serum 6 to linear peptides of protein X1 of SARS-CoV Urbani / Binding of serum 37 to linear peptides of protein X1 of SARS-CoV Urbani / Binding of serum 6 to looped/cyclic peptide (PEPSCAN-ELISA) / Binding of serum 37 to looped/cyclic peptide (PEPSCAN-ELISA) / Binding of serum 37 to looped/cyclic peptides of protein X1 of SARS-CoV Urbani / Binding of serum 6 to linear peptides of protein X2 / Binding of serum 37 to linear peptides of protein X2 / Binding of serum 37 to looped/cyclic peptides of protein X2 of SARS-CoV Urbani / Binding of serum 6 to linear peptides of protein M of SARS-CoV Urbani / Binding of serum 37 to linear peptides of protein M of SARS-CoV Urbani / Binding of serum 6 to looped/cyclic peptides of protein M of SARS-CoV Urbani / Binding of serum 37 to looped/cyclic peptides of protein M of SARS-CoV Urbani / Binding of serum 6 to linear peptides of protein X3 of SARS-CoV Urbani / Binding of serum 37 to linear peptides of protein X3 of SARS-CoV Urbani / Binding of serum 37 to looped/cyclic peptides of protein X3 of SARS-CoV Urbani / Binding of serum 6 to linear peptides of protein X4 of SARS-CoV Urbani / Binding of serum 37 to linear peptides of protein X4 of SARS-CoV Urbani / Binding of serum 37 to looped/cyclic peptides of protein X4 of SARS-CoV Urbani / Binding of serum 6 to linear peptides of protein X5 of SARS-CoV Urbani / Binding of serum 37 to linear peptides of protein X5 of SARS-CoV Urbani / Binding of serum 37 to looped/cyclic peptides of protein X5 of SARS-CoV Urbani / Binding of serum 6 to linear peptides of protein N of SARS-CoV Urbani / Binding of serum 37 to linear peptides of protein N of SARS-CoV Urbani / Binding of serum 6 to linear peptide (PEPSCAN-ELISA) / Binding of serum 1a to looped/cyclic peptides of protein N of SARS-CoV Urbani / Binding of serum 1b to looped/cyclic peptides of protein N of SARS-CoV Urbani / Binding of serum 2 to looped/cyclic peptides of protein N of SARS-CoV Urbani / Binding of serum 6 to looped/cyclic peptides of protein N of SARS-CoV Urbani / Binding of serum 37 to looped/cyclic peptides of protein N of SARS-CoV Urbani / Binding of serum 62 to looped/cyclic peptides of protein N of SARS-CoV Urbani / Binding of serum London to looped/cyclic peptides of protein N of SARS-CoV Urbani / Binding of serum SARS-green to looped/cyclic peptides of protein N of SARS-CoV Urbani: unit not given here
[2] = test system: rabbit serum obtained by immunizing a rabbit with the SARS-CoV strain Frankfurt 1; assay type: binding; parameters: Binding of a rabbit serum to linear peptides / Binding of a rabbit serum to looped peptides / Rabbit serum linear peptides / Rabbit serum looped peptides / Binding of a rabbit serum to linear peptides of protein N of SARS-CoV Urbani (Rabbit serum linear peptides) / Binding of a rabbit serum to looped/cyclic peptides of protein N of SARS-CoV Urbani (Rabbit serum looped peptides): unit not given here
[3] = test system: control sera (pooled serum of ten healthy LUMC hospital workers; commercial negative donor pooled serum from the Dutch bloodbank); assay type: binding, human; parameters: Binding of Control serum LUMC to linear peptides / Binding of Control serum Blood-bank to linear peptides / Binding of Control serum LUMC to looped peptides / Binding of Control Serum Blood-Bank to Looped peptides / Binding of Control serum LUMC to linear peptides of the protein M of SARS-CoV Urbani / Binding of Control serum Blood-bank to linear peptides of the protein M of SARS-CoV Urbani / Binding of Control serum LUMC to looped peptides of the protein M of SARS-CoV Urbani / Binding of Control Serum Blood-Bank to Looped peptides of the protein M of SARS-CoV Urbani: unit not given here

Question: With MWLSYFVASFRLFAR as the sequence, how does the “Binding of serum 1a to linear peptides of protein M of SARS-CoV Urbani” value [1] read?
Answer: 0.6

Question: And the “Binding of serum 1b to linear peptides of protein M of SARS-CoV Urbani” value [1]?
Answer: 0.3

Question: And the “Binding of serum 2 to linear peptides of protein M of SARS-CoV Urbani” value [1]?
Answer: 0.5

Question: And the “Binding of serum 6 to linear peptides of protein M of SARS-CoV Urbani” value [1]?
Answer: 0.3

Question: And the “Binding of serum 37 to linear peptides of protein M of SARS-CoV Urbani” value [1]?
Answer: 0.6

Question: What about the “Binding of serum 62 to linear peptides of protein M of SARS-CoV Urbani” value [1] of the same sequence?
Answer: 0.7

Question: And the “Binding of serum London to linear peptides of protein M of SARS-CoV Urbani” value [1]?
Answer: 0.3

Question: And the “Binding of serum SARS-green to linear peptides of protein M of SARS-CoV Urbani” value [1]?
Answer: 0.2

Question: And the “Binding of serum SARS-yellow to linear peptides of protein M of SARS-CoV Urbani” value [1]?
Answer: 0.1

Question: What about the “Recognition of the peptide by sera of SARS-CoV infected individuals, and form (linear, looped/cyclic) in which it is recognized” value [1] of the same sequence?
Answer: recognized in looped/cyclic form

Question: And the “Rabbit serum linear peptides” value [2]?
Answer: 0.4

Question: And the “Rabbit serum looped peptides” value [2]?
Answer: 0.5

Question: And the “Binding of Control Serum Blood-Bank to Looped peptides of the protein M of SARS-CoV Urbani” value [3]?
Answer: 0.7

Question: What about the “Binding of Control serum Blood-bank to linear peptides of the protein M of SARS-CoV Urbani” value [3] of the same sequence?
Answer: 0.5

Question: What about the “Binding of Control serum LUMC to linear peptides of the protein M of SARS-CoV Urbani” value [3] of the same sequence?
Answer: 0.2

Question: What about the “Binding of Control serum LUMC to looped peptides of the protein M of SARS-CoV Urbani” value [3] of the same sequence?
Answer: 0.7

Question: With MWSFNPETNILLNVP as the sequence, how does the “Binding of serum 1a to linear peptides of protein M of SARS-CoV Urbani” value [1] read?
Answer: 0.8

Question: What about the “Binding of serum 1a to looped/cyclic peptides of protein M of SARS-CoV Urbani” value [1] of the same sequence?
Answer: 0.8

Question: And the “Binding of serum 1b to linear peptides of protein M of SARS-CoV Urbani” value [1]?
Answer: 0.5

Question: What about the “Binding of serum 1b to looped/cyclic peptides of protein M of SARS-CoV Urbani” value [1] of the same sequence?
Answer: 0.7

Question: What about the “Binding of serum 2 to linear peptides of protein M of SARS-CoV Urbani” value [1] of the same sequence?
Answer: 0.8

Question: And the “Binding of serum 2 to looped/cyclic peptides of protein M of SARS-CoV Urbani” value [1]?
Answer: 0.9

Question: And the “Binding of serum 6 to linear peptides of protein M of SARS-CoV Urbani” value [1]?
Answer: 0.4

Question: What about the “Binding of serum 6 to looped/cyclic peptides of protein M of SARS-CoV Urbani” value [1] of the same sequence?
Answer: 0.5

Question: And the “Binding of serum 37 to linear peptides of protein M of SARS-CoV Urbani” value [1]?
Answer: 0.9

Question: What about the “Binding of serum 37 to looped/cyclic peptides of protein M of SARS-CoV Urbani” value [1] of the same sequence?
Answer: 0.8

Question: And the “Binding of serum 62 to linear peptides of protein M of SARS-CoV Urbani” value [1]?
Answer: 0.9

Question: What about the “Binding of serum 62 to looped/cyclic peptides of protein M of SARS-CoV Urbani” value [1] of the same sequence?
Answer: 0.8

Question: What about the “Binding of serum London to linear peptides of protein M of SARS-CoV Urbani” value [1] of the same sequence?
Answer: 0.3

Question: And the “Binding of serum London to looped/cyclic peptides of protein M of SARS-CoV Urbani” value [1]?
Answer: 0.2

Question: What about the “Binding of serum SARS-green to linear peptides of protein M of SARS-CoV Urbani” value [1] of the same sequence?
Answer: 0.3

Question: And the “Binding of serum SARS-green to looped/cyclic peptides of protein M of SARS-CoV Urbani” value [1]?
Answer: 0.3

Question: What about the “Binding of serum SARS-yellow to linear peptides of protein M of SARS-CoV Urbani” value [1] of the same sequence?
Answer: 0.1

Question: What about the “Binding of serum SARS-yellow to looped/cyclic peptides of protein M of SARS-CoV Urbani” value [1] of the same sequence?
Answer: 0.6

Question: What about the “Rabbit serum linear peptides” value [2] of the same sequence?
Answer: 0.4

Question: What about the “Rabbit serum looped peptides” value [2] of the same sequence?
Answer: 0.2

Question: And the “Binding of Control Serum Blood-Bank to Looped peptides of the protein M of SARS-CoV Urbani” value [3]?
Answer: 0.8

Question: And the “Binding of Control serum Blood-bank to linear peptides of the protein M of SARS-CoV Urbani” value [3]?
Answer: 0.9

Question: And the “Binding of Control serum LUMC to linear peptides of the protein M of SARS-CoV Urbani” value [3]?
Answer: 0.5

Question: And the “Binding of Control serum LUMC to looped peptides of the protein M of SARS-CoV Urbani” value [3]?
Answer: 0.8

Question: NATFFIFNKLVKDPP was tested. Which “Binding of serum 1a to linear peptides of protein X1 of SARS-CoV Urbani” value [1] did it give?
Answer: 0.6

Question: What about the “Binding of serum 1a to looped/cyclic peptides of protein X1 of SARS-CoV Urbani” value [1] of the same sequence?
Answer: 0.5

Question: And the “Binding of serum 1b to linear peptides of protein X1 of SARS-CoV Urbani” value [1]?
Answer: 0.5

Question: And the “Binding of serum 1b to looped/cyclic peptides of protein X1 of SARS-CoV Urbani” value [1]?
Answer: 0.3

Question: What about the “Binding of serum 2 to linear peptides of protein X1 of SARS-CoV Urbani” value [1] of the same sequence?
Answer: 0.4

Question: What about the “Binding of serum 2 to looped/cyclic peptides of protein X1 of SARS-CoV Urbani” value [1] of the same sequence?
Answer: 0.3

Question: And the “Binding of serum 6 to linear peptides of protein X1 of SARS-CoV Urbani” value [1]?
Answer: 0.4

Question: What about the “Binding of serum 6 to looped/cyclic peptides of protein X1 of SARS-CoV Urbani” value [1] of the same sequence?
Answer: 0.4

Question: What about the “Binding of serum 37 to linear peptides of protein X1 of SARS-CoV Urbani” value [1] of the same sequence?
Answer: 0.5

Question: What about the “Binding of serum 37 to looped/cyclic peptides of protein X1 of SARS-CoV Urbani” value [1] of the same sequence?
Answer: 0.4

Question: And the “Binding of serum 62 to linear peptides of protein X1 of SARS-CoV Urbani” value [1]?
Answer: 0.4

Question: What about the “Binding of serum 62 to looped/cyclic peptides of protein X1 of SARS-CoV Urbani” value [1] of the same sequence?
Answer: 0.4

Question: What about the “Binding of serum London to linear peptides of protein X1 of SARS-CoV Urbani” value [1] of the same sequence?
Answer: 0.2

Question: What about the “Binding of serum London to looped/cyclic peptides of protein X1 of SARS-CoV Urbani” value [1] of the same sequence?
Answer: 0.2

Question: And the “Binding of serum SARS-green to linear peptides of protein X1 of SARS-CoV Urbani” value [1]?
Answer: 0.2

Question: What about the “Binding of serum SARS-green to looped/cyclic peptides of protein X1 of SARS-CoV Urbani” value [1] of the same sequence?
Answer: 0.2

Question: And the “Binding of serum SARS-yellow to linear peptides of protein X1 of SARS-CoV Urbani” value [1]?
Answer: 0.2

Question: And the “Binding of serum SARS-yellow to looped/cyclic peptides of protein X1 of SARS-CoV Urbani” value [1]?
Answer: 0.0

Question: What about the “Binding of a rabbit serum to linear peptides” value [2] of the same sequence?
Answer: 0.1

Question: What about the “Binding of a rabbit serum to looped peptides” value [2] of the same sequence?
Answer: 0.3

Question: And the “Binding of Control Serum Blood-Bank to Looped peptides” value [3]?
Answer: 0.3

Question: What about the “Binding of Control serum Blood-bank to linear peptides” value [3] of the same sequence?
Answer: 0.4

Question: And the “Binding of Control serum LUMC to linear peptides” value [3]?
Answer: 0.4

Question: What about the “Binding of Control serum LUMC to looped peptides” value [3] of the same sequence?
Answer: 0.4
